According to publication PMC10002984, “Dual PTP1B/TC-PTP Inhibitors: Biological Evaluation of 3-(Hydroxymethyl)cinnoline-4(1H)-Ones” (International Journal of Molecular Sciences, 2023):
Marks after values point to notes of the source that are not given here.

Columns and labels:
PTP1B = tested on: PTP1B; design: method as in doi:10.1134/S0022093018040038; settings: cited from earlier work
rat hypothalamic neurons = tested on: rat hypothalamic neurons; design: method as in doi:10.1134/S0022093018040038; settings: cited from earlier work
diet-induced obese rats = tested on: diet-induced obese rats; design: method as in doi:10.1134/S0022093022060187; settings: cited from earlier work
[1] = tested on: PTP1B and TC-PTP in the hypothalamic arcuate nucleus; design: method as in PMID 30525586; settings: administered to mice; cited from earlier work
[2] = biological target: T1, recombinant human PTP1B protein (Homo sapiens, UniProt P18031); experiment: Phosphatase activity assay with DiFMUP, PTP1B inhibition; assay type: biochemical
T1 construct: purchased Abcam ab51277
T1 sequence (P18031 1-321 limits assumed): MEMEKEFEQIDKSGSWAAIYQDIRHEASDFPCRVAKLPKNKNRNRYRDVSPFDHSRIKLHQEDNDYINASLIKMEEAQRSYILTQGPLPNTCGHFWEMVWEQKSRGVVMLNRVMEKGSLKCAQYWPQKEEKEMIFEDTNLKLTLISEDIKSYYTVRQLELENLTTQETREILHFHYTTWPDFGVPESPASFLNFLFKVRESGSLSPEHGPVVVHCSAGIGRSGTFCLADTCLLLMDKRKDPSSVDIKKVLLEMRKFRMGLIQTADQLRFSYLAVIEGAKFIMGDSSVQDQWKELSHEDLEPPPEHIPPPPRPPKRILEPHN
Description: (§1) The measurement of the activity of the phosphatases PTP1B and TC-PTP and their inhibition was carried out using 6,8-difluoro-4methylumbelliferyl phosphate (DiFMUP), as previously described. The stock solution of recombinant human PTP1B protein (#ab51277, Abcam, Cambridge, UK), at a concentration of 1 µg/µL, was prepared in 25 mM Tris–HCl (pH 7.5), 20% glycerol, 2 mM β-mercaptoethanol, 1 mm EDTA, and 1 mM DTT, and stored at −20 °C. Active human recombinant TC-PTP protein was purchased from Sigma-Aldrich (#SRP0218, Saint Louis, MO, USA) as the aqueous buffer solution at a concentration of 2.9 mg/mL, and aliquots were stored at −80 °C. The fluorogenic substrate DiFMUP (#D6567, Molecular Probes, Thermo Fisher Scientific, Waltham, MA, USA) was dissolved at a concentration of 10 mM in N,N-dimethylformamide and stored in aliquots at −20 °C. The 6,8-difluoro-7-hydroxy-4-methylcoumarin (DiFMU, #D6566, Molecular Probes, Thermo Fisher Scientific, Waltham, MA, USA) was used as a reference fluorescent standard. For the IC50 determination, the assay was carried out in black flat bottom 96-well plates using a reaction volume of 100 µL. The phosphatases (PTP1B or TC-PTP) were preincubated with the tested compounds (0.1–80 µM) in 50 mM HEPES (pH 6.9), 100 mM NaCl, 1 mM EDTA, 2 mM DTT, 0.1 mg/mL BSA for 5 min at 37 °C. The following concentrations of the compounds were studied: 0.1, 0.2, 0.5, 1, 2, 5, 10, 20, 40, and 80 μM. The reactions were initiated by the addition of the fluorogenic substrate DiFMUP and diluted in the assay buffer. Progress curves for hydrolysis reaction were obtained with 25 µM of DiFMUP for 80 ng/mL PTP1B, and 35 µM of DiFMUP for 80 ng/mL TC-PTP. Fluorescence excitation of hydrolyzed DiFMUP and the fluorescent standard DiFMU was monitored at 355 nm and emission was detected at 460 nm for 6–10 min at 30 s intervals in a Fluoroskan Ascent FL microplate reader (Thermo Electron Corporation, Vantaa, Finland). Initial velocities of the reactions were used to calculate the IC50 values using GraphPad Prism.
(§2) The data on food intake, body weight, and biochemical parameters in rats, as well as the PCR data, were analyzed using the IBM SPSS Statistics 22 software (“IBM”, Armonk, NY, USA), and the results are presented as mean ± standard error of the mean (M ± SEM). All differences are considered significant at p < 0.05. The calculation of the IC50 values of the studied inhibitors for the initial velocities of enzymatic reactions (PTP1B, TC-PTP) was carried out using the nonlinear regression analysis with GraphPad Prism 8 (“GraphPad Software, Inc.”, Boston, MA, USA). The statistical analysis was carried out using the Wilcoxon test for pairwise comparison and Dunn’s test for multiple comparisons.

[3] = biological target: T2, human recombinant TC-PTP protein (Homo sapiens, UniProt P17706); experiment: Phosphatase activity assay with DiFMUP, TC-PTP inhibition; assay type: biochemical; settings: DiFMUP 35 µM, 80 ng/mL TC-PTP, compounds 0.1–80 μM; M ± SEM (n = 24); read-out: IC50 for the inhibitory effect on TC-PTP activity
T2 construct: purchased Sigma-Aldrich SRP0218
T2 sequence (P17706 1-415): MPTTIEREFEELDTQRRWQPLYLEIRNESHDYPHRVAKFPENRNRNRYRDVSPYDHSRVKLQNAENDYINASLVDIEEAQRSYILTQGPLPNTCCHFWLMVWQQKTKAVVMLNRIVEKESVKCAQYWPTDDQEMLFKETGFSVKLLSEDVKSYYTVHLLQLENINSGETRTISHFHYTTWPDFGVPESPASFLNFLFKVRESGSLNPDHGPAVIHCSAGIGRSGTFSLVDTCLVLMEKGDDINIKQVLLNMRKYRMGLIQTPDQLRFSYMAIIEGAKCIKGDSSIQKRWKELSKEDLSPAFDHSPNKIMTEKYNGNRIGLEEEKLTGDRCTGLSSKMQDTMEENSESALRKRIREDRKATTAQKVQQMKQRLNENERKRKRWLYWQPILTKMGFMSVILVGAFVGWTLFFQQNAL
Description: as §1, §2

[4] = tested on: male rats with HFD-induced obesity; experiment: Blood glucose, insulin and leptin levels and insulin resistance index in obese rats; assay type: in vivo, male Wistar rats
Description: (§3) Further, six groups were formed: control (Con, n = 10), obesity (Ob, n = 10), obese rats with five-day treatment with compounds 1 (Ob + 1, n = 5), 2 (Ob + 2, n = 5), 3 (Ob + 3, n = 10), and 4 (Ob + 4, n = 10). All compounds were administered in DMSO (300 µL) at a daily dose of 7 mg/kg (1 and 2), 8 mg/kg (3), and 10 mg/kg (4) (i.p.), based on the results of the preliminary experiments. The used doses of compounds 1–4, in terms of the number of moles of each compound per kg of animal body weight, were equivalent. Control and obese rats received DMSO in the same volumes (300 µL), instead of the tested compounds. During the five days of the experiment, all animals were transferred to standard food and had free access to food and drinking water. […] The test was carried out on the morning of the next day after the last (fifth) injection of the compounds or DMSO, after a 10 h fast. The rest of the animals (n = 5 in each group) were anesthetized and decapitated on the last day of the experiment. The blood and liver samples were taken to measure blood glucose and hormone levels and gene expression in the liver.
The glucose levels in the blood obtained from the tail vein were measured using a glucometer (Life Scan Johnson & Johnson, Denmark) and the test strips “One Touch Ultra” (USA). The levels of insulin and leptin in rat serum were estimated with the “Rat Insulin ELISA” (Mercodia AB, Uppsala, Sweden) and “ELISA for Leptin, Rat” (Cloud-Clone Corporation, Houston, TX, USA) kits. The GTT was carried out using a single injection of glucose (2 g/kg, i.p.) after 10 h of fasting, as described earlier. The blood glucose levels were measured before (0 min) and 15, 30, 60, and 120 min after the glucose load.

Shp1 gene = experiment: Gene expression in the liver of obese rats (qPCR), Shp1 gene; assay type: in vivo, rat; settings: five-day treatment
Description: as §3
The total RNA was isolated from the liver samples of rats using the “ExtractRNA Reagent” (Evrogen, Moscow, Russia), and the samples containing 1 μg of RNA were transcribed to cDNA using the random oligodeoxynucleotide primers and the “MMLV RT kit” (Evrogen, Russia). The amplification procedure was carried out in the mixture containing 10 ng of reverse transcribed product, 0.4 μM of the forward and reverse primers, and the “qPCRmix-HS SYBR + LowROX kit” (Evrogen, Russia). The amplified signals were detected using the “Applied Biosystems® 7500 Real-Time PCR System” (Life Technologies, Carlsbad, CA, USA, Thermo Fisher Scientific Inc., USA). The primers that were used to assess the expression of genes encoding the phosphatase PTP1B, TC-PTP, and SHP1 and the insulin and leptin receptors are presented in Table 4. The obtained data were calculated with the delta–delta Ct method and expressed as a fold expression, relative to the corresponding control. The expression of the gene encoding 18S RNA was used as an endogenous control.

[5] = blood, after five-day i.p. treatment, 7 mg/kg (1, 2), 8 mg/kg (3), 10 mg/kg (4), M ± SEM, n = 5
[6] = blood, before treatment (baseline), M ± SEM, n = 5

For `CCOC(=O)c1ccc2[nH]nc(CO)c(=O)c2c1` [PI4, ethyl 3-(hydroxymethyl)-4-oxo-1,4-dihydrocinnoline-6-carboxylate], the “activity towards PTP1B” value (PTP1B) is listed as “inhibitory activity”, the “effect on components of the insulin and leptin signaling pathways (Akt, STAT3)” value (rat hypothalamic neurons) is listed as “stimulating effect” and the “body and fat weights” value (diet-induced obese rats) is listed as “reduced”. For the same compound, the food intake (diet-induced obese rats) was “suppressed”.
For `CC1=C(O)C(=O)C=C2C1=CC=C1[C@@]2(C)CC[C@@]2(C)[C@@H]3C[C@](C)(C(=O)O)CC[C@]3(C)CC[C@]12C` [Celastrol], the “activity of both phosphatases (PTP1B, TC-PTP) in the hypothalamic arcuate nucleus” value [1] is given as “reduced” and the “food intake and body weights” value [1] is given as “significantly reducing”.
With `O=c1c(CO)n[nH]c2ccc(F)cc12` [Compound 2] the IC50 ([2]; DiFMUP 25 µM, 80 ng/mL PTP1B, compounds 0.1–80 μM, M ± SEM (n = 24), read-out: IC50 for the inhibitory effect on PTP1B activity) was 6.01 ± 0.59 µM, the “selectivity for PTP1B compared to that for TC-PTP” value ([2]; from IC50 values of Table 1) was 5–7 fold and the IC50 [3] was 42.8 ± 9.93 µM. For the same compound, the “Glucose, After” value [4, 5] was 5.68 ± 0.09 ^a mM, the “Insulin, After” value [4, 5] was 1.19 ± 0.13 ^a,c ng/mL and the “Leptin, After” value [4, 5] was 2.18 ± 0.22 ^a,c ng/mL. The “Glucose, Before” value [4, 6] was 5.82 ± 0.22 ^a mM, the “Insulin, Before” value [4, 6] was 1.65 ± 0.17 ^a ng/mL and the “Leptin, Before” value [4, 6] was 3.27 ± 0.38 ^a ng/mL. The “IR (insulin resistance index), After” value ([4]; product of blood glucose and insulin concentrations, after five-day i.p. treatment, 7 mg/kg (1, 2), 8 mg/kg (3), 10 mg/kg (4)) was 6.79 ± 0.76 ^a arb.Units, the “IR (insulin resistance index), Before” value ([4]; product of blood glucose and insulin concentrations, before treatment (baseline)) was 9.68 ± 1.27 ^a arb.Units and the “expression of the Shp1 gene in the liver” value (Shp1 gene) was “increased”.
